In US20080014230A1, “Cosmetic compositions combining a C-glycoside derivative and an N-acylamino amide derivative” (L'OREAL, priority 2006, published 2008):
One block for each compound: values may come before it.

Tested on: keratinocyte transglutamase (TGk) activity in normal human epidermal keratinocytes (NHEK) of R3KO15 type
Assay: keratinocyte transglutamase (TGk) activity after prolonged contact of keratinocytes with the test composition
Format: cell-based
Settings: for Activity/μg: TGk activity relative to the amount of proteins, calcium-free medium; for %/blank: TGk activity, % of blank (−Ca)
Protocol: The tests performed below use normal human epidermal keratinocytes (NHEK) of R3KO15 type obtained from breast surgery.
The activity of a composition in accordance with the invention is tested with regard to these keratinocytes by assaying the keratinocyte transglutamase (TGk) activity after prolonged contact of the keratinocytes with the test composition, the increase in TGk activity sanctioning a stimulation of keratinocyte differentiation.
The activity is tested in an SFM medium available from Invitrogen under the reference 17005034.
Its composition is as follows: • EGF 0.25 ng/ml, • pituitary extract (PE) 25 μg/ml (Invitrogen 3700015), • gentamycin 25 μg/ml (Sigma G1397) • optionally supplemented with 1.5 mM final calcium chloride (Prolabo 22317297).
Keratinocytes (R3KO15) are precultured in SFM1x medium in 96-well plates (one plate for the test, one for the protein assay and one for the MTT). After incubation for 24 hours at 37° C., the culture medium is removed and replaced with SFM medium, which is not supplemented (calcium-free blank) or supplemented with 1.5 mM final of calcium chloride and not containing (blank) or containing the products, mixed with the test or the references.
After incubation for 48 hours at 37° C. and 5% CO2, the culture medium is removed and the cells are again treated and then incubated for 48 hours at 37° C.
All the experimental conditions are performed in hexaplicate.
The cell lawns are washed and then sonicated, on ice, in Tris/EDTA pH 8.0 buffer.
The membrane TGk enzyme is extracted in the presence of Triton X-100 (incubation with stirring at 4° C.) and the TGk activity is then determined by measuring the covalent addition of tritiated putrescine at 2 μCi/ml final (Amersham TRK 414; 1.04 TBq/mmol, 28 Ci/mmol) to casein (acceptor protein, 2 mg/ml final), in a Tris 0.1 M, CaCl2 4 mM, EDTA 0.4 mM, DTT 5 mM, pH 8.3 buffer, for 2 hours at 37° C.
The casein is precipitated by addition of 20% trichloroacetic acid (TCA) containing 1 mM putrescine and the precipitates are recovered on a Skatron filter and collector (extensive washing with 5% TCA, 0.1 mM putrescine and ethanol) and the dry filters are then counted by liquid scintillation.
The proteins of each sample are assayed using the Dc Protein Assay kit (BioRad 500-0116) and according to the protocol recommended by the manufacturer.
The results obtained are given in Table 1 below, the TGk activity being relative to the amount of proteins—calcium-free medium.

Activity/μg (1 mM): 171
Activity/μg (3 mM): 210
%/blank (1 mM): 136%
%/blank (3 mM): 167%
Structure (SMILES): CC(O)C[C@@H]1OC[C@@H](O)[C@H](O)[C@H]1O (stereo partly drawn) [C-glycoside, C-β-D-xylopyranoside-2-hydroxypropane]

Structure (SMILES): CC(=O)N(c1cccc(C(F)(F)F)c1)C(C(=O)NCC(=O)O)C(C)C (centres unmarked) [N-acylamino amide, {2-[acetyl(3-trifluoromethyl-phenyl)amino]-3-methylbutyrylamino}acetic acid]
Activity/μg (0.04 mg/ml): 114
Activity/μg (0.2 mg/ml): 104
%/blank (0.04 mg/ml): 91%
%/blank (0.2 mg/ml): 82%
effect on the TGk activity (in words) (tested at 0.2 mg/ml and 0.04 mg/ml): no significant effect

Structure (SMILES): CC1=C(/C=C/C(C)=C/C=C/C(C)=C/C(=O)O)C(C)(C)CCC1 [Retinoic acid, retinoic acid, reference compound]
Activity/μg (10^−7 M): 111
%/blank (10^−7 M): 88%
